Key:
Type in all cases: cell-based
[1] = system: CCL17 expression in HaCaT cells; assay: CCL17 protein in media (ELISA) of HaCaT cells induced by TNF-α and/or IFN-γ; conditions: HaCaT cells, 2.5, 5, 10 and 20 μg/mL for one hour, then TNF-α, IFN-γ, or both, 18 hours, FIG. 3
Procedure: (§1) Also, to figure out an effect of ergostenol at a protein level, HaCaT cells were treated with ergostenol at a concentration of 2.5, 5, 10 and 20 μg/mL for one hour, then treated with molecules related to inflammation induction, i.e., TNF-α, IFN-γ, or TNF-α and IFN-γ, and then cultured for 18 hours. With regard to CCL17 and CCL22, the amount of proteins present in media was identified with an ELISA kit (R&D Systems, Minneapolis, Minn., USA). Captured antibodies (anti-CCL17 antibody and anti-CCL22 antibody) at 2 μg/mL were inserted into a 96-well plate in an amount of 50 μL, respectively, subjected to coating for two hours, and then subjected to blocking with PBS containing 1% BSA for one hour. Then, a collected sample was inserted into each well in an amount of 100 μL, respectively, and subjected to reaction for two hours. The cells were washed three times with PBS-T, after which 50 μL of detector antibodies (anti-CCL17 antibody and anti-CCL22 antibody) were inserted into each well at 100 ng/well, and subjected to reaction for two hours. […] The cells were fully washed with PBS-T, after which a substrate solution (TMB) was added thereto, such that absorbance thereof was measured at 450 nm.

[2] = system: CCL17 expression in HaCaT cells; assay: CCL17 gene expression (RT-PCR) in HaCaT cells induced by TNF-α and/or IFN-γ; conditions: HaCaT cells, 2.5, 5, 10 and 20 μg/mL for one hour, then TNF-α, IFN-γ, or both, 18 hours; RNA level, FIG. 2
Procedure: (§2) 1×10^6 HaCaT cells were moved into a 6-well microplate, cultured in DMEM containing 10% (v/v) FBS for 12 hours, washed with PBS, and then treated in 2 mL of serum free media with ergostenol at each concentration of 2.5, 5, 10 and 20 μg/mL for one hour. After that, the cells were treated with inflammation-inducing molecules, i.e., TNF-α, IFN-γ, or TNF-α and IFN-γ, and then cultured for 18 hours. To identify a change in CCL17 and CCL22 expressions at an RNA level, RNAs were isolated with Trizol reagent kit (Invitrogen, Gaithersburg, Md.) according to a manufacturer's manual. A reverse transcription was performed with the isolated RNAs as a template to obtain cDNAs. A reverse transcription buffer solution (5 mM MgCl2, 1 mM dNTP, 2.5 U/μL reverse transcriptase, and 2.5 μM oligo (dT) 15 as a primer (omniscript RTkit, Qiagen)), 0.5 U of RNase inhibiter, 2.5 μM of oligo (dT) and 2.5 U of reverse transcriptase were added into 2 μg of […], and subjected to reaction at 37° C., such that the cDNAs were obtained. To quantify the obtained cDNAs, PCR was performed with the primers of a following table 1, after which the amplified DNAs were identified with 1% agarose gel.

[3] = system: CCL22 expression in HaCaT cells; assay: CCL22 gene expression (RT-PCR) in HaCaT cells induced by TNF-α and/or IFN-γ; conditions: HaCaT cells, 2.5, 5, 10 and 20 μg/mL for one hour, then TNF-α, IFN-γ, or both, 18 hours; RNA level, FIG. 2
Procedure: as §2

[4] = system: CCL22 expression in HaCaT cells; assay: CCL22 protein in media (ELISA) of HaCaT cells induced by TNF-α and/or IFN-γ; conditions: HaCaT cells, 2.5, 5, 10 and 20 μg/mL for one hour, then TNF-α, IFN-γ, or both, 18 hours, FIG. 3
Procedure: as §1

Ergostenol
decrease: level of CCL17 protein expression [1] | level of CCL17 gene expression [2] | level of CCL22 gene expression [3] | level of CCL22 protein expression [4]

Reference: patent publication US11059852B2, “Ergostenol glycoside derivative” (ST PHARM CO., LTD., priority 2017, dated 2021)
